From ChEMBL document CHEMBL4619721, “Design, synthesis & biological evaluation of ferulic acid-based small molecule inhibitors against tumor-associated carbonic anhydrase IX” (Bioorg Med Chem, 2020)
Calls of active or inactive are those of the source. The calls are words filed in the database; no cut-off is given here.

What was measured:
Carbonic anhydrase 9 [1] = molecular target: T1, Carbonic anhydrase 9 (Homo sapiens, UniProt Q16790);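 further: esterase activity of the enzyme on p-nitrophenyl acetate, followed by UV-Vis spectrophotometry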
Description: Inhibition of human carbonic anhydrase 9 using p-nitrophenyl acetate as substrate by UV-VIS spectrophotometric analysis

Homo sapiens [2] = species on record: Homo sapiens; experiment: Selectivity index, ratio of IC50 for human carbonic anhydrase 2 using p-nitrophenyl acetate as substrate to IC50 for human carbonic anhydrase 9 using p-nitrophenyl acetate as substrate
Homo sapiens [3] = species on record: Homo sapiens; experiment: Selectivity index, ratio of IC50 for human carbonic anhydrase 2 using p-nitrophenyl acetate as substrate to IC50 for human carbonic anhydrase 5A using p-nitrophenyl acetate as substrate by
[4] = molecular target: Carbonic anhydrase 5A, mitochondrial (Homo sapiens, UniProt P35218); experiment: Inhibition of human carbonic anhydrase 5A using p-nitrophenyl acetate as substrate by UV-VIS spectrophotometric analysis
Carbonic anhydrase 5A, mitochondrial, sequence (P35218 whole entry): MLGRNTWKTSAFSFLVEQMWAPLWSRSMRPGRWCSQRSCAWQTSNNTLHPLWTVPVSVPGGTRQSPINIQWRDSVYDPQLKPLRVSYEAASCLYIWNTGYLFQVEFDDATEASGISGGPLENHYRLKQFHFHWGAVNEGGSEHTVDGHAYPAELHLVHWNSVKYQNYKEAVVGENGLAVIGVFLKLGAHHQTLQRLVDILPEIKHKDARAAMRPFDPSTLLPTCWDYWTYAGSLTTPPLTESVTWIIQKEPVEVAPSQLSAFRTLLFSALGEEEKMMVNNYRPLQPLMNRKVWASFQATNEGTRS

Carbonic anhydrase 2 = Carbonic anhydrase 2 (Homo sapiens, UniProt P00918); experiment: Inhibition of human carbonic anhydrase 2 using p-nitrophenyl acetate as substrate by UV-VIS spectrophotometric analysis
HT-29 [5] = experiment: Effect on ephithelial-mesenchymal transition in human HT-29 cells assessed as decrease in slug expression at IC50 concentration after 48 hrs by immunoblotting analysis; assay type: functional, cell-based
Albumin = Albumin (Homo sapiens, UniProt P02768); experiment: Binding affinity to human serum albumin assessed as decrease in emission intensity by fluorescence emission spectrum based Stern-Volmer method; assay type: ADME; details: isolated protein
Albumin, sequence (P02768 whole entry): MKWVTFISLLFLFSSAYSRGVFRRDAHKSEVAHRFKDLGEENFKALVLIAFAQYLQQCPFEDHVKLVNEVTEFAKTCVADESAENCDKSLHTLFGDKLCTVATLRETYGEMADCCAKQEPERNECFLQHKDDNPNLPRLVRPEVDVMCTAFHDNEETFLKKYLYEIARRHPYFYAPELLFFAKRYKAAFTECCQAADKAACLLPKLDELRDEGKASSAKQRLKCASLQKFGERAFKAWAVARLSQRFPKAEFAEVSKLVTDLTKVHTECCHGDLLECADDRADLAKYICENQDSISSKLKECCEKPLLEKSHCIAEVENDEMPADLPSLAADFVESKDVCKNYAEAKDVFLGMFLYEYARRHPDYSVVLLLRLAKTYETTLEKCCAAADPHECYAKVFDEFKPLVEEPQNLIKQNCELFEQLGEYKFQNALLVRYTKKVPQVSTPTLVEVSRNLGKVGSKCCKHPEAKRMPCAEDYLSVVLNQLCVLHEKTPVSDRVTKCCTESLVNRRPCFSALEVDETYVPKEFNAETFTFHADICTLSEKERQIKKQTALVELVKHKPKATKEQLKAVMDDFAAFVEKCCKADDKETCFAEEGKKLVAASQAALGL

HepG2 [6] = experiment: Effect on ephithelial-mesenchymal transition in human HepG2 cells assessed as decrease in snail expression at IC50 concentration after 48 hrs by immunoblotting analysis; assay type: functional, cell-based
HepG2 [7] = experiment: Effect on ephithelial-mesenchymal transition in human HepG2 cells assessed as increase in E-cadherin expression at IC50 concentration after 48 hrs by immunoblotting analysis; assay type: functional, cell-based
HepG2 [8] = experiment: Inhibition of colony formation in human HepG2 cells at IC50 concentration after 10 days by crystal violet staining based colony formation assay; assay type: functional, cell-based
Carbonic anhydrase 9 [9] = molecular target: T1, Carbonic anhydrase 9; experiment: Binding affinity to human carbonic anhydrase 9 assessed as dissociation constant by isothermal titration calorimetric assay
HT-29 [10] = experiment: Induction of apoptosis in human HT-29 cells assessed as necrotic cells at IC50 concentration after 24 hrs by Annexin V-FITC/propidium iodide staining based flow cytometry (reference value: 0.68%); assay type: functional
HepG2 [11] = experiment: Down regulation of HIF1-alpha protein expression in human HepG2 cells by immunoblotting analysis; assay type: functional, cell-based
HepG2 [12] = experiment: Induction of apoptosis in human HepG2 cells assessed as late apoptotic cells at IC50 concentration after 24 hrs by Annexin V-FITC/propidium iodide staining-based flow cytometric analysis (reference value: 0%); assay type: functional
HT-29 [13] = experiment: Effect on ephithelial-mesenchymal transition in human HT-29 cells assessed as decrease in Zeb1 expression at IC50 concentration after 48 hrs by immunoblotting analysis; assay type: functional, cell-based
HepG2 [14] = experiment: Down regulation of carbonic anhydrase 9 mRNA expression in human HepG2 cells by RT-PCR analysis; assay type: functional, cell-based
HepG2 [15] = experiment: Down regulation of carbonic anhydrase 9 protein expression in human HepG2 cells by immunoblotting analysis; assay type: functional, cell-based
HT-29 [16] = experiment: Induction of apoptosis in human HT-29 cells assessed as late apoptotic cells at IC50 concentration after 24 hrs by Annexin V-FITC/propidium iodide staining based flow cytometry (reference value: 0.089%); assay type: functional
HT-29 [17] = experiment: Down regulation of carbonic anhydrase 9 mRNA expression in human HT-29 cells by RT-PCR analysis; assay type: functional, cell-based
HT-29 [18] = experiment: Induction of apoptosis in human HT-29 cells assessed as increase in cleaved PARP expression at IC50 concentration after 48 hrs by immunoblotting analysis; assay type: functional, cell-based
HEK293 = experiment: Cytotoxicity against HEK293 cells assessed as reduction in cell viability measured after 48 or 72 hrs by MTT assay; assay type: cell-based; details: human, hek293, 72 h
HT-29 [19] = experiment: Cytotoxicity against human HT-29 cells assessed as reduction in cell viability after 48 hrs by MTT assay; assay type: functional, cell-based; details: HT-29, 48 h
HepG2 [20] = experiment: Induction of apoptosis in human HepG2 cells assessed as necrotic cells at IC50 concentration after 24 hrs by Annexin V-FITC/propidium iodide staining-based flow cytometric analysis (reference value: 1.14%); assay type: functional
HepG2 [21] = experiment: Effect on ephithelial-mesenchymal transition in human HepG2 cells assessed as decrease in Zeb1 expression at IC50 concentration after 48 hrs by immunoblotting analysis; assay type: functional, cell-based
HepG2 [22] = experiment: Induction of apoptosis in human HepG2 cells at 11.22 uM after 24 hrs by Annexin V-FITC/propidium iodide staining based flow cytometry relative to control; assay type: functional
HT-29 [23] = experiment: Inhibition of colony formation in human HT-29 cells at IC50 concentration after 10 days by crystal violet staining based colony formation assay; assay type: functional, cell-based
HepG2 [24] = experiment: Induction of apoptosis in human HepG2 cells assessed as viable cells at IC50 concentration after 24 hrs by Annexin V-FITC/propidium iodide staining based flow cytometry (reference value: 98.9%); assay type: functional
HepG2 [25] = experiment: Induction of apoptosis in human HepG2 cells assessed as increase in cleaved PARP expression at IC50 concentration after 48 hrs by immunoblotting analysis; assay type: functional, cell-based
HT-29 [26] = experiment: Induction of apoptosis in human HT-29 cells at 8.44 uM after 24 hrs by Annexin V-FITC/propidium iodide staining based flow cytometry relative to control; assay type: functional
HepG2 [27] = experiment: Induction of apoptosis in human HepG2 cells assessed as early apoptotic cells at IC50 concentration after 24 hrs by Annexin V-FITC/propidium iodide staining based flow cytometry (reference value: 0%); assay type: functional
HT-29 [28] = experiment: Down regulation of carbonic anhydrase 9 protein expression in human HT-29 cells by immunoblotting analysis; assay type: functional, cell-based
HT-29 [29] = experiment: Induction of apoptosis in human HT-29 cells assessed as early apoptotic cells at IC50 concentration after 24 hrs by Annexin V-FITC/propidium iodide staining based flow cytometry (reference value: 0.73%); assay type: functional
HepG2 [30] = experiment: Effect on ephithelial-mesenchymal transition in human HepG2 cells assessed as decrease in slug expression at IC50 concentration after 48 hrs by immunoblotting analysis; assay type: functional, cell-based
HT-29 [31] = experiment: Down regulation of HIF1-alpha protein expression in human HT-29 cells by immunoblotting analysis; assay type: functional, cell-based
HT-29 [32] = experiment: Effect on ephithelial-mesenchymal transition in human HT-29 cells assessed as increase in E-cadherin expression at IC50 concentration after 48 hrs by immunoblotting analysis; assay type: functional, cell-based
HepG2 [33] = experiment: Cytotoxicity against human HepG2 cells assessed as reduction in cell viability after 48 hrs by MTT assay; assay type: functional, cell-based; details: HepG2, 48 h
HepG2 [34] = experiment: Antimigratory activity against human HepG2 cells assessed as inhibition of cell migration at IC50 concentration after 24 hrs by crystal violet staining microscopy based transwell migration assay; assay type: functional
HT-29 [35] = experiment: Induction of apoptosis in human HT-29 cells assessed as viable cells at IC50 concentration after 24 hrs by Annexin V-FITC/propidium iodide staining based flow cytometry (reference value: 98.5%); assay type: functional
HT-29 [36] = experiment: Effect on ephithelial-mesenchymal transition in human HT-29 cells assessed as decrease in snail expression at IC50 concentration after 48 hrs by immunoblotting analysis; assay type: functional, cell-based
HT-29 [37] = experiment: Antimigratory activity against human HT-29 cells assessed as inhibition of cell migration at IC50 concentration after 24 hrs by crystal violet staining microscopy based transwell migration assay; assay type: functional

Q: For `COc1cc(/C=C/C(=O)O)ccc1OCc1cn(-c2ccc(Cl)cc2)nn1`, which IC50 (Carbonic anhydrase 9 [1]) is on record?
A: 0.771 µM

Q: Which IC50 (Carbonic anhydrase 9 [1]) does the source give for `COc1cc(/C=C/C(=O)O)ccc1OCc1cn(-c2ccccc2C)nn1` here?
A: 3.64 µM

Q: With `COc1cc(/C=C/C(=O)O)ccc1OCc1cn(-c2ccc(F)cc2)nn1` as the compound, how does the IC50 (Carbonic anhydrase 9 [1]) read?
A: 7.64 µM

Q: How did the IC50 (Carbonic anhydrase 9 [1]) turn out when `COc1cc(/C=C/C(=O)O)ccc1OCc1cn(-c2cccc(C)c2)nn1` was run?
A: 5.24 µM

Q: `COc1cc(/C=C/C(=O)O)ccc1OCc1cn(-c2ccccc2Cl)nn1` was tested. Which IC50 (Carbonic anhydrase 9 [1]) did it give?
A: 14.5 µM

Q: `COc1cccc(-n2cc(COc3ccc(/C=C/C(=O)O)cc3OC)nn2)c1` was tested. Which IC50 (Carbonic anhydrase 9 [1]) did it give?
A: 1.96 µM

Q: How did the IC50 (Carbonic anhydrase 9 [1]) turn out when `COc1cc(/C=C/C(=O)O)ccc1OCc1cn(-c2ccc(C(=O)O)cc2)nn1` was run?
A: 0.92 µM

Q: For `COc1cc(/C=C/C(=O)O)ccc1OCc1cn(-c2ccccc2[N+](=O)[O-])nn1`, which IC50 (Carbonic anhydrase 9 [1]) is on record?
A: 2.44 µM

Q: `COc1cc(/C=C/C(=O)O)ccc1OCc1cn(-c2ccc(C)cc2)nn1` was tested. Which IC50 (Carbonic anhydrase 9 [1]) did it give?
A: 4.22 µM

Q: `COc1cc(/C=C/C(=O)O)ccc1OCc1cn(-c2cccc(Cl)c2)nn1` was tested. Which IC50 (Carbonic anhydrase 9 [1]) did it give?
A: 1.37 µM

Q: How did the IC50 (Carbonic anhydrase 9 [1]) turn out when `COc1cc(/C=C/C(=O)O)ccc1OCc1cn(-c2ccccc2OC)nn1` was run?
A: 2.6 µM

Q: `COc1cc(/C=C/C(=O)O)ccc1O` [FERULATE] was tested. Which Ratio IC50 (Homo sapiens [2]) did it give?
A: 0.7

Q: And the Ratio IC50 (Homo sapiens [3])?
A: 0.7

Q: And the IC50 (Carbonic anhydrase 9 [1])?
A: 9.39 µM

Q: And the IC50 [4]?
A: 8.86 µM

Q: And the IC50 (Carbonic anhydrase 2)?
A: 6.44 µM

Q: Which IC50 (Carbonic anhydrase 9 [1]) does the source give for `COc1cc(/C=C/C(=O)O)ccc1OCc1cn(-c2ccccc2F)nn1` here?
A: 8.94 µM

Q: For `COc1ccc(-n2cc(COc3ccc(/C=C/C(=O)O)cc3OC)nn2)cc1`, which IC50 (Carbonic anhydrase 9 [1]) is on record?
A: 4.76 µM

Q: With `COc1cc(/C=C/C(=O)O)ccc1OCc1cn(-c2cccc([N+](=O)[O-])c2)nn1` as the compound, how does the Activity (HT-29 [5]) read?
A: Active

Q: And the Ka (Albumin)?
A: 5.46 ×10⁴ /M

Q: And the Activity (HepG2 [6])?
A: Active

Q: What about the Activity (HepG2 [7]) of the same compound?
A: Active

Q: And the inhibition (HepG2 [8])?
A: Active

Q: And the Kd (Carbonic anhydrase 9 [9])?
A: 29 µM

Q: And the Activity (HT-29 [10])?
A: 11.6%

Q: And the Activity (HepG2 [11])?
A: Active

Q: What about the Activity (HepG2 [12]) of the same compound?
A: 6.6%

Q: What about the Activity (HT-29 [13]) of the same compound?
A: Active

Q: And the Activity (HepG2 [14])?
A: Active

Q: And the Activity (HepG2 [15])?
A: Active

Q: And the Activity (HT-29 [16])?
A: 10.5%

Q: What about the Activity (HT-29 [17]) of the same compound?
A: Active

Q: What about the Activity (HT-29 [18]) of the same compound?
A: Active

Q: What about the Activity (HEK293) of the same compound?
A: Non-Toxic

Q: What about the IC50 (HT-29 [19]) of the same compound?
A: 8.44 µM

Q: And the Activity (HepG2 [20])?
A: 10.3%

Q: What about the Activity (HepG2 [21]) of the same compound?
A: Active

Q: What about the Activity (HepG2 [22]) of the same compound?
A: 19.22%

Q: And the inhibition (HT-29 [23])?
A: Active

Q: And the Activity (HepG2 [24])?
A: 80.9%

Q: And the IC50 (Carbonic anhydrase 9 [1])?
A: 0.024 µM

Q: And the Activity (HepG2 [25])?
A: Active

Q: What about the Activity (HT-29 [26]) of the same compound?
A: 24.44%

Q: And the Activity (HepG2 [27])?
A: 2.17%

Q: What about the Activity (HT-29 [28]) of the same compound?
A: Active

Q: What about the Activity (HT-29 [29]) of the same compound?
A: 2.29%

Q: What about the Activity (HepG2 [30]) of the same compound?
A: Active

Q: What about the Activity (HT-29 [31]) of the same compound?
A: Active

Q: What about the Activity (HT-29 [32]) of the same compound?
A: Active

Q: And the IC50 (HepG2 [33])?
A: 11.2 µM

Q: And the Activity (HepG2 [34])?
A: Active

Q: And the Activity (HT-29 [35])?
A: 75.6%

Q: What about the Activity (HT-29 [36]) of the same compound?
A: Active

Q: What about the IC50 [4] of the same compound?
A: 1.1 µM

Q: And the IC50 (Carbonic anhydrase 2)?
A: 1.99 µM

Q: What about the Activity (HT-29 [37]) of the same compound?
A: Active

Q: Which results are given for `COc1cc(/C=C/C(=O)O)ccc1OCc1cn(-c2ccccc2)nn1`?
A: IC50 (Carbonic anhydrase 9 [1]): > 20 µM; IC50 [4]: > 20 µM; IC50 (Carbonic anhydrase 2): > 20 µM

Q: With `COc1cc(/C=C/C(=O)O)ccc1OCc1cn(-c2ccc([N+](=O)[O-])cc2)nn1` as the compound, how does the IC50 (Carbonic anhydrase 9 [1]) read?
A: 1.45 µM

Q: How did the IC50 (Carbonic anhydrase 9 [1]) turn out when `COc1cc(/C=C/C(=O)O)ccc1OCc1cn(-c2cccc(F)c2)nn1` was run?
A: 12.2 µM
